Source: paper PMC10559933 (The Prostate, 2023)
Like-named read-outs stand apart in the source and are kept apart here.

Assays:
[1] = tested on: CWR22-RH PDXs; test: RNA sequencing of in vivo growing CWR22-RH PDX; design: species or system human xenograft in mice; details: oral 10 mg/kg/d vs vehicle, castrate hosts
[2] = tested on: CWR22-RH human prostate cancer PDXs; test: In vivo growth of CWR22-RH PDX in castrate NSG mice; design: species or system human xenograft in NSG mice; details: castrate NSG mice, 3-week treatment
[3] = tested on: CWR-22Rv1 xenografts; assay type: in vivo, human xenograft in mice; details: oral 10 mg/kg/d
[4] = tested on: liver Cyp1a1; test: Liver Cyp1a1 induction in mice; assay type: in vivo; details: oral 10 mg/kg, alone and in combination with B(a)P
[5] = tested on: human umbilical vein endothelial cells (HUVECs); test: Three dimensional; assay type: cell-based; details: CM-supplemented 3D cultures, 10 μM
[6] = molecular target: fl-NCoR1 protein (Homo sapiens, UniProt O75376); test: SPR: TasQ in solution binding to immobilized fl-NCoR1
[7] = cited from earlier work
[8] = tested on: LvCaP-3 human prostate cancer PDXs; test: In vivo growth of LvCaP-3 PDX in castrate mice; design: species or system human xenograft in mice; details: oral 10 mg/kg/d, alone or in combination with B(a)P
[9] = molecular target: fl-wild-type HDAC4 (Homo sapiens, UniProt P56524); test: SPR competition: TasQ in solution vs immobilized TasQ for fl-wild-type HDAC4; assay type: binding
[10] = tested on: prostate cancer xenografts; details: oral 10 mg/kg/d, cited from earlier work
[11] = molecular target: fl-HDAC4 (Homo sapiens, UniProt P56524); test: HDAC4 enzymatic assay with Lys; assay type: biochemical; details: Lys(TFA)-AMC substrate
[12] = tested on: HIF-1α protein; details: daily oral 10 mg/kg/d; cited from earlier work
[13] = molecular target: T1, Human Aryl Hydrocarbon Receptor (AHR) (Homo sapiens, UniProt P35869); test: Cell-based luciferase reporter gene assay driven by AHR-responsive promoter
T1 sequence (P35869 11-848): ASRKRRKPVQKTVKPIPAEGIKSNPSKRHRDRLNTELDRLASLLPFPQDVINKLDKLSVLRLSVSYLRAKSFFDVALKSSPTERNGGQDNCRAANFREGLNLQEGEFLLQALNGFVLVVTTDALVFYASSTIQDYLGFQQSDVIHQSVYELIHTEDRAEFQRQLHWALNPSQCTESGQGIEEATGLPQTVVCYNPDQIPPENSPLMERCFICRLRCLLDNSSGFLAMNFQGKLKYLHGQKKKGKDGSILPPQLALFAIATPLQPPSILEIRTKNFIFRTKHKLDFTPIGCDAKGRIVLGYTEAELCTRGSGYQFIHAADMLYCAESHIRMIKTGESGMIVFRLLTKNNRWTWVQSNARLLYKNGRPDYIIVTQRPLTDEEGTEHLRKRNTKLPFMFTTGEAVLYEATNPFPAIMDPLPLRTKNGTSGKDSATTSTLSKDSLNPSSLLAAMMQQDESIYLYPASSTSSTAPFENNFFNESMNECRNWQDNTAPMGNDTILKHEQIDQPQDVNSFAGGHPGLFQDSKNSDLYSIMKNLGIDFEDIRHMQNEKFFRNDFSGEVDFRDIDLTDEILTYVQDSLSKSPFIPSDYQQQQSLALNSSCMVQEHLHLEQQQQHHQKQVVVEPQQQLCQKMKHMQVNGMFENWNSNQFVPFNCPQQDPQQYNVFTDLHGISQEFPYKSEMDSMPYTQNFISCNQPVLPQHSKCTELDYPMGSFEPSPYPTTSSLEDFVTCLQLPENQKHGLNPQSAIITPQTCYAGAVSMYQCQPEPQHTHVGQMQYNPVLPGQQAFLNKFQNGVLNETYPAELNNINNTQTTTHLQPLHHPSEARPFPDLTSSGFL

[14] = molecular target: fl-R681A/R798A double mutant HDAC4 protein (Homo sapiens, UniProt P56524, R681A/R798A); test: SPR competition: TasQ in solution vs immobilized TasQ for mutant HDAC4; assay type: binding
[15] = tested on: metastatic castration-resistant prostate cancer (mCRPC); details: cited from earlier work
[16] = tested on: prostate cancer xenografts; details: cited from earlier work
[17] = cited from earlier work; remark: listed apart in the source
[18] = tested on: LNCaP cells; test: In vitro growth of LNCaP parental vs HDAC4 KD cells, normoxia vs hypoxia; assay type: cell-based, human; details: TasQ 10 μM
[19] = tested on: thymus; test: AHR agonist induced thymus regression in FVB male mice; assay type: in vivo; details: oral 10 mg/kg/d for 14 days; vehicle 72 +/− 3 (>70)
[20] = phase 1B, TasQ combined with cabazitaxel, RECIST

Sequence of fl-R681A/R798A double mutant HDAC4 protein (P56524 whole entry R681A/R798A): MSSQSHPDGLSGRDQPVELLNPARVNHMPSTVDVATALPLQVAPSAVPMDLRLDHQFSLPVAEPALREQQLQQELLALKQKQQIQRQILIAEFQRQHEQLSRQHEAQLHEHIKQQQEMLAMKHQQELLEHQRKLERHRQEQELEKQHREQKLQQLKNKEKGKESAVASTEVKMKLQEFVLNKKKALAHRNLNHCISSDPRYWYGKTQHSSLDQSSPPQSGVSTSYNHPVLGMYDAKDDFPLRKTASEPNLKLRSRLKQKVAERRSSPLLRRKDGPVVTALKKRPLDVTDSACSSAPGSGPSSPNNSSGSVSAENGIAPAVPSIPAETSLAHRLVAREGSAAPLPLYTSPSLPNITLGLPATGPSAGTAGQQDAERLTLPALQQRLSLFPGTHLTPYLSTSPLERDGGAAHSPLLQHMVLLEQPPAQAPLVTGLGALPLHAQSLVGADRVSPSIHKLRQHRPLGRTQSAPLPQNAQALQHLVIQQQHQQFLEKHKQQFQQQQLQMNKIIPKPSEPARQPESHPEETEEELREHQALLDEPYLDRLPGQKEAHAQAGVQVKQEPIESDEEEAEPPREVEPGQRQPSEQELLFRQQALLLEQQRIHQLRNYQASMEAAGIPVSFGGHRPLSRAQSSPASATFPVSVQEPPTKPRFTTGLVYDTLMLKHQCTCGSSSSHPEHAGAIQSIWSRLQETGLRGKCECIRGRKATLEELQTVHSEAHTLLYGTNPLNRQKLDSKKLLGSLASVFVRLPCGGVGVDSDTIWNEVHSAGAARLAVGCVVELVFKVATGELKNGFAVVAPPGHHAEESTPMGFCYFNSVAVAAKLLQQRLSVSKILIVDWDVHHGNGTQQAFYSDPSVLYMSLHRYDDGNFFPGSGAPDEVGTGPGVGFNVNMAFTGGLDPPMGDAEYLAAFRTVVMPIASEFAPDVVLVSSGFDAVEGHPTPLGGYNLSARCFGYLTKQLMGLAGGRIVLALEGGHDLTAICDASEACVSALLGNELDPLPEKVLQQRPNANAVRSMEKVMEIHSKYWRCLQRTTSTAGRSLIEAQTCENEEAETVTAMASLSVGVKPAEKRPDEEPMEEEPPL
Sequence of fl-wild-type HDAC4 (P56524 whole entry): as the sequence (P56524 whole entry R681A/R798A) above, with A681R, A798R counted along it
Sequence of fl-HDAC4 (P56524 whole entry): as the sequence (P56524 whole entry R681A/R798A) above, with A681R, A798R counted along it
Sequence of fl-NCoR1 protein (O75376 whole entry): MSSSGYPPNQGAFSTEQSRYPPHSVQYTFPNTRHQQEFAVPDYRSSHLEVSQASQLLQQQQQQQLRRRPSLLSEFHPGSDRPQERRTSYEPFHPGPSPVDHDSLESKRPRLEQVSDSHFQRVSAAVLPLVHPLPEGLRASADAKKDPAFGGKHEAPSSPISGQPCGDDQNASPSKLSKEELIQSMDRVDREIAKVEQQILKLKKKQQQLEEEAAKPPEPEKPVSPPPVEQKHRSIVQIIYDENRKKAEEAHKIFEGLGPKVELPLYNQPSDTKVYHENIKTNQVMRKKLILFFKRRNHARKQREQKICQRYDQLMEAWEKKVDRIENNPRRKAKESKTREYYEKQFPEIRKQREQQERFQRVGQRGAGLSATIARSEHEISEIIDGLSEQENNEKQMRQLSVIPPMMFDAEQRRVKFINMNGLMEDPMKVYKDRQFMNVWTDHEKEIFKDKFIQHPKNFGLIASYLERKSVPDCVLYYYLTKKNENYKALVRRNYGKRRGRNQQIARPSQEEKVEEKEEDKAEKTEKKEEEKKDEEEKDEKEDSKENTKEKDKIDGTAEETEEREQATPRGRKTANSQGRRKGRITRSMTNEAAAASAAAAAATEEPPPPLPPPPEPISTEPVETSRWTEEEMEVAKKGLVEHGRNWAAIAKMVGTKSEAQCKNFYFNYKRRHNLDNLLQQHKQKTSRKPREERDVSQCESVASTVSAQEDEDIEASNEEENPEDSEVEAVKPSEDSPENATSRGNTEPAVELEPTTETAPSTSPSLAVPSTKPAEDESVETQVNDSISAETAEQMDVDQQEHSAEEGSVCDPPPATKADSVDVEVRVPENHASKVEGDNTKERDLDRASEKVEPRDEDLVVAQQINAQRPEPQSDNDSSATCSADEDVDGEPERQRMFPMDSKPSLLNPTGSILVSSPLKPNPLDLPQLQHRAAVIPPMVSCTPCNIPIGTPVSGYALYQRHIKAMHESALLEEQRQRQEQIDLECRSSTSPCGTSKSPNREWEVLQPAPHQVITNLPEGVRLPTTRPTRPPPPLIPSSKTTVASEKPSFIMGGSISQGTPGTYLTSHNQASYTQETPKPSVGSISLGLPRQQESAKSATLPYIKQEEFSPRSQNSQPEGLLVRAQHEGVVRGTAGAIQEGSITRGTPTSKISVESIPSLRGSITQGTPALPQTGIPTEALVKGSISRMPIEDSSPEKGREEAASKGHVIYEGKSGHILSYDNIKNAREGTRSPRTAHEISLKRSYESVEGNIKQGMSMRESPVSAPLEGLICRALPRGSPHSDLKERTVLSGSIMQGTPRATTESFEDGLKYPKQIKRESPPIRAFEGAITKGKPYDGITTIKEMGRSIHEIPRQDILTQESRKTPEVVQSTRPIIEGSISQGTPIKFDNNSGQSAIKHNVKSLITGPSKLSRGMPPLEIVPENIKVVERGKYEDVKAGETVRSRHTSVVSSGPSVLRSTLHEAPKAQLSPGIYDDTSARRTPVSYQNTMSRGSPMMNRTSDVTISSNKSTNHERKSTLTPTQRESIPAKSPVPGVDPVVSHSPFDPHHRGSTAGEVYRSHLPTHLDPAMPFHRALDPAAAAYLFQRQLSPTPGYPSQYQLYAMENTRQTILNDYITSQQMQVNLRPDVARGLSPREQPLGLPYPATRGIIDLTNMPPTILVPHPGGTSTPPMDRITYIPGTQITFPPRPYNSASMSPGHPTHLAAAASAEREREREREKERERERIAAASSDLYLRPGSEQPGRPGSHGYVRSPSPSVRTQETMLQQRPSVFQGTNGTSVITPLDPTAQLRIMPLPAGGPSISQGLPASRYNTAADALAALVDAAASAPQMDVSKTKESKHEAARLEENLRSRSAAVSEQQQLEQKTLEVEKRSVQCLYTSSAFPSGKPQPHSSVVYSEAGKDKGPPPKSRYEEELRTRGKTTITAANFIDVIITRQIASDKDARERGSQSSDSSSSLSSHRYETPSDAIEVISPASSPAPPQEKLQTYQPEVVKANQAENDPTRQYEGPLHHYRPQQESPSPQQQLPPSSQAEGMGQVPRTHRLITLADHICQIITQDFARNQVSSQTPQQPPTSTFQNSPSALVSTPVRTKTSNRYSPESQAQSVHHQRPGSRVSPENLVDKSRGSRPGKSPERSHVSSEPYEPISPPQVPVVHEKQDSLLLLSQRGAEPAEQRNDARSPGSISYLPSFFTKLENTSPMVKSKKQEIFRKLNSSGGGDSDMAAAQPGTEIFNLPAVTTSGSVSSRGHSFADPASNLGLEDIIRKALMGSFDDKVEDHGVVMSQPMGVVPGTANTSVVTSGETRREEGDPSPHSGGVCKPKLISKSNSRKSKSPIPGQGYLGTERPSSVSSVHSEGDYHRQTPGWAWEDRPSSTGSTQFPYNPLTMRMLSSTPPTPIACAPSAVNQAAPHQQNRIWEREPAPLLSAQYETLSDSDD

COc1cccc2c1c(O)c(C(=O)N(C)c1ccc(C(F)(F)F)cc1)c(=O)n2C [TasQ, 4-hydroxy-5-methoxy-N,1-dimethyl-2-oxo-N-[(4-trifluoromethyl)phenyl]-1,2-dihydroquinoline-3-caboxamide]
AGR2, AHR Target Genes (Fold Increases by TasQ) [1]: 5.5 fold | AHR, AHR Target Genes (Fold Increases by TasQ) [1]: 3.0 fold | ALDOC, HIF-1a Target Genes (Fold Decrease by TasQ) [1]: −1.4 fold | AR, AR Target Genes (Fold Decrease by TasQ) [1]: −2.0 fold | BNIP3, HIF-1a Target Genes (Fold Decrease by TasQ) [1]: −1.9 fold | CDC6, Proliferation Target Genes (Fold Decrease by TasQ) [1]: −1.5 fold | CDT1, Proliferation Target Genes (Fold Decrease by TasQ) [1]: −2.2 fold | CYP1B1, AHR Target Genes (Fold Increases by TasQ) [1]: 10.0 fold | DTYMK, Proliferation Target Genes (Fold Decrease by TasQ) [1]: −1.6 fold | E2F1, Proliferation Target Genes (Fold Decrease by TasQ) [1]: −2.0 fold | GDF15, AHR Target Genes (Fold Increases by TasQ) [1]: 2.3 fold | HILPDA, HIF-1a Target Genes (Fold Decrease by TasQ) [1]: −1.7 fold | IGF1, HIF-1a Target Genes (Fold Decrease by TasQ) [1]: −11.0 fold | IGFBP2, HIF-1a Target Genes (Fold Decrease by TasQ) [1]: −1.8 fold | IGFBP5, HIF-1a Target Genes (Fold Decrease by TasQ) [1]: −18.0 fold | KLKP1, AR Target Genes (Fold Decrease by TasQ) [1]: −2.3 fold | LDHA, HIF-1a Target Genes (Fold Decrease by TasQ) [1]: −1.5 fold | LOX, HIF-1a Target Genes (Fold Decrease by TasQ) [1]: −4.0 fold | MCM2, Proliferation Target Genes (Fold Decrease by TasQ) [1]: −1.9 fold | MCM3, Proliferation Target Genes (Fold Decrease by TasQ) [1]: −1.6 fold | MCM5, Proliferation Target Genes (Fold Decrease by TasQ) [1]: −2.0 fold | MKI67, Proliferation Target Genes (Fold Decrease by TasQ) [1]: −1.7 fold | NKX3.1, AR Target Genes (Fold Decrease by TasQ) [1]: −2.3 fold | NQOI, AHR Target Genes (Fold Increases by TasQ) [1]: 2.9 fold | P4HA1, HIF-1a Target Genes (Fold Decrease by TasQ) [1]: −1.8 fold | PDK1, HIF-1a Target Genes (Fold Decrease by TasQ) [1]: −1.7 fold | PTN, HIF-1a Target Genes (Fold Decrease by TasQ) [1]: −6.1 fold | SLC45A3, AR Target Genes (Fold Decrease by TasQ) [1]: −3.7 fold | TIPARP, AHR Target Genes (Fold Increases by TasQ) [1]: 3.4 fold | TMPRSS2, AR Target Genes (Fold Decrease by TasQ) [1]: −1.9 fold | TNC, HIF-1a Target Genes (Fold Decrease by TasQ) [1]: −2.5 fold | TTR, HIF-1a Target Genes (Fold Decrease by TasQ) [1]: −3.8 fold | VEGFB, HIF-1a Target Genes (Fold Decrease by TasQ) [1]: −1.5 fold | BHLHE41, MEF-2 Target Genes (Fold Decrease by TasQ) ([1]; section title: upregulation): 2.9 fold | CA12, MEF-2 Target Genes (Fold Decrease by TasQ) ([1]; section title: upregulation): 2.7 fold | CAPN2, MEF-2 Target Genes (Fold Decrease by TasQ) ([1]; section title: upregulation): 1.6 fold | CEACAM1, MEF-2 Target Genes (Fold Decrease by TasQ) ([1]; section title: upregulation): 1.8 fold | EDN1, MEF-2 Target Genes (Fold Decrease by TasQ) ([1]; section title: upregulation): 15.0 fold | NR4A1, MEF-2 Target Genes (Fold Decrease by TasQ) ([1]; section title: upregulation): 1.4 fold | NR4A2, MEF-2 Target Genes (Fold Decrease by TasQ) ([1]; section title: upregulation): 1.8 fold | S100P, MEF-2 Target Genes (Fold Decrease by TasQ) ([1]; section title: upregulation): 5.7 fold | THB5, MEF-2 Target Genes (Fold Decrease by TasQ) ([1]; section title: upregulation): 8.0 fold | oral daily dose giving maximal significant growth inhibition [2]: ≥ 5 mg/kg/day | growth inhibition ([3]; dominant-positive mutant HIF-1α tumors): < 25% | growth inhibition ([3]; wild type cells): > 80% | induction of liver Cyp1a1 [4]: > 50 fold | sprouting [5]: sprouting prevented | binding to immobilized fl-NCoR1 [6]: no detectable binding | serum nadir ([7]; oral 5 mg/kg/d, at 24 hrs): 1.08 ± 0.21 µM | blood concentration maintained ([7]; oral 10 mg/kg/d): > 1 µM | inhibition of growth at end of study (fraction) [8]: ~ 2/3 | EC50 [9]: 1000 nM | pO2 in the TME ([10]; lowered from >3 mmHg): 1.4 +/− 1.0 mmHg | enhancement of hypoxia [10]: > 2 fold | effect on enzymatic activity [11]: did not inhibit | lowering of HIF-1α protein in tumors [12]: > 50% | EC50 [13]: 1000 nM | displacement of mutant HDAC4 from immobilized TasQ [14]: not competitively displaced | patients with complete or partial response (CR/PR) [15, 20]: 12% | patients with stable disease [15, 20]: 48% | overall survival (OS) ([15]; phase III, 1 mg/day): not significantly enhanced | reduction of risk of radiographic progression or death vs. placebo ([15]; phase III, daily oral): 36% | improvement of median progression-free survival (PFS) ([15]; randomized phase II, mCRPC progressing on ADT): 4.3 months | fold more potent compared to Linomide ([16]; based on serum drug level): ≥ 100 fold | daily oral dosing required in mice [16]: > 5 mg/kg/day | fold increase in anti-tumor efficacy compared to Linomide [16]: > 25 fold | daily oral dosing required for maximal therapeutic activity ([16]; preclinical): ≥ 5 mg/kg | serum concentration to be maintained for maximal therapeutic activity ([16]; preclinical): > 2 µM | plasma concentration maintained ([17]; 0.5 mg/d): 0.23 ± 0.03 µM | steady-state plasma level ([17]; 1 mg/day): 0.42 ± 0.05 µM | MTD when combined with cabazitaxel and prednisone ([17]; phase 1B): 0.5 mg/day | maximum tolerated dose (MTD) ([17]; phase I, oral, after dose escalation over 4–6 weeks): 1 mg/day | dose-limiting toxicity ([17]; phase I): sinus tachycardia and asymptomatic elevation in amylase | effect on cells [18]: the cells die | thymus weight [19]: 41.6 ± 6 mg
